Experimental data published in ChEMBL document CHEMBL1126287, “Analogues of natural phloroglucinols as antagonists against both thromboxane A2 and leukotriene D4” (J Med Chem, 1992).

Organism: Cavia porcellus
Experiment: Inhibitory activity of the Compound was tested against U-46619 induced contraction of guinea pig trachea at 3*10e-7 M concentration.
Type: functional
Compound CCC1(CC)C(=O)C(C(=O)C(C)C)=C(O)C(C(=O)C(C)C)=C1O has an Inhibition of 49%.

Organism: Cavia porcellus
Experiment: Inhibitory activity of the Compound was tested against U-46619 induced contraction of guinea pig trachea at 3*10e-8 M concentration.
Type: functional
With CC(C)C(=O)c1c(C(C)C)nn2ccccc12 [IBUDILAST] the Inhibition was 85.4%.

Organism: Cavia porcellus
Experiment: Inhibitory activity of the Compound was tested against LTD4 induced contraction of guinea pig trachea at 3*10e-7 M concentration.
Type: functional
CCC1(CC)C(=O)C(C(=O)C(C)C)=C(O)C(C(=O)C(C)C)=C1O gave an Inhibition of 44.9%.

Organism: Cavia porcellus
Experiment: Inhibitory activity of the Compound was tested against U-46619 induced contraction of guinea pig trachea at 1*10e-4 M concentration.
Type: functional
CC(C)=CCC/C(C)=C/COc1cc(O)c(C(=O)C(C)C)c(O)c1C was tested, and the Inhibition was 50%.

Organism: Cavia porcellus
Experiment: Inhibitory activity of the Compound was tested against U-46619 induced contraction of guinea pig trachea at 1*10e-5 M concentration.
Type: functional
Compound CCCC(=O)c1c(O)cc(O)cc1O has an Inhibition of 27.3%. CCCCCC(=O)c1c(O)cc(O)cc1O gave an Inhibition of 56.9%.

Organism: Cavia porcellus
Experiment: Inhibitory activity of the Compound was tested against U-46619 induced contraction of guinea pig trachea at 1*10e-6 M concentration.
Type: functional
Work on CCC1(CC)C(=O)C(C(=O)C(C)C)=C(O)C(C(=O)C(C)C)=C1O yielded an Inhibition of 84.2%.

Organism: Cavia porcellus
Experiment: Inhibitory activity of the Compound was tested against U-46619 induced contraction of guinea pig trachea at 2*10e-5 M concentration.
Type: functional
In the case of COC1(OC)C(=O)C(C/C=C(\C)CCC=C(C)C)=C(O)C(CC=C(C)C)=C1O, the Inhibition is reported as 94.9%. CCC(=O)c1c(O)cc(O)c(C(=O)CC)c1O showed an Inhibition of 53.4%. CCCCCCCC(=O)c1c(O)cc(O)c(C(=O)CCCCCCC)c1O showed an Inhibition of 15.1%. CC(=O)c1c(O)cc(O)c(C(C)=O)c1O showed an Inhibition of 44.3%. For CCCCCC(=O)c1c(O)cc(O)c(C(=O)CCCCC)c1O, the Inhibition was 25.9%. CC(C)=CCC/C(C)=C/COc1cc(O)c(C(=O)C(C)C)c(O)c1C was tested, and the Inhibition was 10.8%. CC(C)C(=O)c1c(O)cc(O)c(C(=O)C(C)C)c1O was tested, and the Inhibition was 53.6%.

Organism: Cavia porcellus
Experiment: Inhibitory activity of the Compound was tested against U-46619 induced contraction of guinea pig trachea at 2*10e-5 concentration.
Type: functional
CCCCCC(=O)c1c(O)cc(O)cc1O was tested, and the Inhibition was 100%.

Organism: Cavia porcellus
Experiment: Inhibitory activity of the Compound was tested against LTD4 induced contraction of guinea pig trachea at 1*10e-4 M concentration.
Type: functional
CC(C)=CCC/C(C)=C/COc1cc(O)c(C(=O)C(C)C)c(O)c1C was tested, and the Inhibition was 50.9%.

Organism: Cavia porcellus
Experiment: Inhibitory activity of the Compound was tested against LTD4 induced contraction of guinea pig trachea at 1*10e-5 M concentration.
Type: functional
Compound CCCCCC(=O)c1c(O)cc(O)cc1O has an Inhibition of 62.3%.

Organism: Cavia porcellus
Experiment: Inhibitory activity of the Compound was tested against LTD4 induced contraction of guinea pig trachea at 1*10e-6 M concentration.
Type: functional
In the case of CCC1(CC)C(=O)C(C(=O)C(C)C)=C(O)C(C(=O)C(C)C)=C1O, the Inhibition is reported as 87.8%.

Organism: Cavia porcellus
Experiment: Inhibitory activity of the Compound was tested against LTD4 induced contraction of guinea pig trachea at 2*10e-5 M concentration.
Type: functional
COC1(OC)C(=O)C(C/C=C(\C)CCC=C(C)C)=C(O)C(CC=C(C)C)=C1O showed an Inhibition of 63.6%. CCC(=O)c1c(O)cc(O)c(C(=O)CC)c1O was tested, and the Inhibition was 97.1%. For CCCCCCCC(=O)c1c(O)cc(O)c(C(=O)CCCCCCC)c1O, the Inhibition was 17.4%. In the case of CC(=O)c1c(O)cc(O)c(C(C)=O)c1O, the Inhibition is reported as 39.1%. CCCCCC(=O)c1c(O)cc(O)cc1O gave an Inhibition of 93.9%. CCCCCC(=O)c1c(O)cc(O)c(C(=O)CCCCC)c1O showed an Inhibition of 43.3%. In the case of CC(C)C(=O)c1c(O)cc(O)c(C(=O)C(C)C)c1O, the Inhibition is reported as 92.3%.

Organism: Cavia porcellus
Experiment: Inhibitory activity of the Compound was tested against LTD4 induced contraction of guinea pig trachea at 2*10e-6 M concentration.
Type: functional
For CCC(=O)c1c(O)cc(O)c(C(=O)CC)c1O, the Inhibition was 42.5%. CC(C)C(=O)c1c(O)cc(O)c(C(=O)C(C)C)c1O showed an Inhibition of 48.5%.

Organism: Cavia porcellus
Experiment: Inhibitory activity of the Compound was tested against LTD4 induced contraction of guinea pig trachea at 2*10e-7 M concentration.
Type: functional
With CCC(=O)c1c(O)cc(O)c(C(=O)CC)c1O the Inhibition was 30.8%. CC(C)C(=O)c1c(O)cc(O)c(C(=O)C(C)C)c1O gave an Inhibition of 28.9%.

Organism: Cavia porcellus
Experiment: Inhibitory activity of the Compound was tested against LTD4 induced contraction of guinea pig trachea at 2*10e5- M concentration.
Type: functional
In the case of CC(C)=CCC/C(C)=C/COc1cc(O)c(C(=O)C(C)C)c(O)c1C, the Inhibition is reported as 12.6%.

Organism: Cavia porcellus
Experiment: Inhibitory concentration of the Compound was tested against LTD4 induced contraction of guinea pig trachea.
Type: functional
Work on CCC(=O)c1c(O)cc(O)c(C(=O)CC)c1O yielded an IC50 of 12 µM. Compound CCC1(CC)C(=O)C(C(=O)C(C)C)=C(O)C(C(=O)C(C)C)=C1O has an IC50 of 0.35 µM. CCCCCC(=O)c1c(O)cc(O)cc1O gave an IC50 of 7.6 µM. CC(C)C(=O)c1c(O)cc(O)c(C(=O)C(C)C)c1O was tested, and the IC50 was 1.2 µM.

Organism: Cavia porcellus
Experiment: Inhibitory activity of the Compound was tested against U-46619 induced contraction of guinea pig trachea.
Type: functional
Compound CCC1(CC)C(=O)C(C(=O)C(C)C)=C(O)C(C(=O)C(C)C)=C1O has an IC50 of 0.31 µM. Compound CCCCCC(=O)c1c(O)cc(O)cc1O has an IC50 of 8.9 µM.
